Seven compounds from patent US9555049B2, “Arene ruthenium (II) derivatives containing iminophosphorane ligands and their use in cancer therapy” (Research Foundation of the City University of New York, priority 2014, dated 2017) can be followed below.

Some results are limits rather than exact numbers.

In data set [1] the test system is non-tumorigenic human embryonic kidney cells HEK293T. As to the kind of experiment: MTT toxicity assay, HEK-293T. The data set is classed as cell-based. Conditions: 24 h incubation, mean ± SD (n = 4). As to the method: In order to assess the compounds' selectivity for cancerous cells with respect to normal cell lines, the compounds were also screened for their antiproliferative effects on the non-tumorigenic human embryonic kidney cells HEK293T.
(§1) A549 (lung carcinoma), MiaPaca2 (pancreatic carcinoma), MDA-MB-231 (Triple negative breast carcinoma) and 293T (non-tumoral embryonic kidney cells) were cultured in DMEM medium supplemented with 10% FCS, L-glutamine and penicillin/streptomycin. Media for A549 cells were also supplemented with 2.2 g/l Na2CO3, 100 μg/ml pyruvate and 5 ml non-essential amino acids (Invitrogen). All these media will be referred as ‘complete medium’ hereinafter. Cell cultures were maintained in a humidified atmosphere of 95% air/5% CO2 at 37° C.
(§2) For toxicity assays cells (5×10^4 for Jurkat cells and 10^4 for adherent cell lines) were seeded in flat-bottom 96-well plates (100 μl/well) in complete medium. Adherent cells were allowed to attach for 24 h prior to addition of cisplatin or tested compounds. Compounds were added at different concentrations in triplicate. Cells were incubated with cisplatin or compounds for 24 h and then cell proliferation was determined by a modification of the MTT-reduction method. […] Finally, formazan crystal was dissolved by adding 100 μl/well ^iPrOH (0.05 M HCl) and gently shaking. The optical density was measured at 570 nm using a 96-well multiscanner autoreader (ELISA). In some experiments total cell number and cell viability were determined by the Trypan-blue exclusion test.
For orientation: Tetrazolium dyes change colour on reduction, which living cells bring about.

The subject of a further data set is prostate DU-145. As to the kind of experiment: MTT toxicity assay, DU-145. Type of data set: cell-based, human. Conditions: 24 h incubation, mean ± SD (n = 4). As to the method: (§3) Compounds were added at different concentrations in triplicate.
The next data set has as its system CT DNA. As to the kind of experiment: DNA precipitation and quantification of ruthenium by ICP-MS. Also on record: unit not given here. Type of data set: binding, calf. As to the method:
In this experiment, 500 μM concentration DNA solutions were treated with 2 equiv of ruthenium compound 2 and compound 3 for twenty hours at 37° C. to promote DNA precipitation. The samples were then centrifuged, and the resulting pellets were analyzed for DNA and metal concentration.
Stock solutions of compounds 2 and 3 (4 mM in water) and CT DNA (11.56 mM in 5 mM Tris/HCl, 50 mM NaClO4, pH=7.39) were freshly prepared prior to use. 216 μl of DNA stock solution were diluted in 3.53 mL of buffer and 1.25 mL of compound stock solution were then added to achieve 5 mL final volume at concentrations of 500 μM in DNA and 1 mM in metal compound. Each sample was incubated at 37° C. for a period of 20 h, then cooled down to room temperature and centrifuged at 3000 rpm for 15 min. and at 4000 rpm for extra 40 min. The supernatant was separated and analyzed for CT DNA concentration by CD spectroscopy. The resulting pellet was washed twice with ice-cold ethanol (1 mL), centrifuged at RT for 1 min. at 4000 rpm, dried under high vacuum and analyzed for Ru content by ICP-MS. The total amount of DNA in each sample was 0.92 mg. Every experiment was run in duplicate.

The nature of data set [2]: Stability in solution by 31P and 1H NMR; air stability. The data set is classed as physicochemical. As to the method: The stability of the water-soluble complexes was studied by ^31P {^1H} and ^1H NMR spectroscopy in D2O. […] However, as explained elsewhere in this specification, the biological activity of compound 2 is very fast (in 8 hours compound 2 induces 80% of apoptosis on Jurkat cells). Thus, without wishing to be bound to any particular theory, the observed biological activity is believed to mainly come from coordination compound 2 or its hydrolysis product.

Data set [3] deals with triple negative breast MDA-MB-231. Description: MTT toxicity assay, MDA-MB-231. Conditions: read-out: IC50 MDA-MB-231, 24 h incubation, mean ± SD (n = 4). As to the method:
Cytotoxic activity of the compounds was determined in some human cancer cell lines: leukemia Jurkat-T, lung A549, prostate DU-145, pancreas MiaPaca2, and triple negative breast MDA-MB-231, in comparison to cisplatin.
as §1, §2

A further data set concerns plasmid pBR322 DNA. As to the kind of experiment: Plasmid (pBR322) DNA electrophoresis (mobility shift assay). The data set is classed as binding. Conditions: 37° C., twenty hours, Tris/HCl buffer, up to drug/DNA ratio 2.0. As to the method: For these experiments, cisplatin, all uncoordinated ligands, and the starting dimeric organometallic ruthenium (II) complex [Ru(η^6-p-cymene)Cl]2 were also measured as controls. Plasmid pBR322 presents two main forms, OC (open circular or relaxed) and CCC (covalently closed or supercoiled), which display different electrophoretic mobility. Changes in the electrophoretic mobility of any of the forms upon incubation of the plasmid with a compound are usually interpreted as evidence of interaction. Generally, a drug that induces unwinding of the CCC form will produce a retardation of the electrophoretic mobility, while coiling of the OC form will result in increased mobility.
10 μL aliquots of pBR322 plasmid DNA (20 μg/mL) in buffer (5 mM Tris/HCl, 50 mM NaClO4, pH=7.39) were incubated with different concentrations of the compounds (1-4, 8, 9, [(η^6-p-cymene)Ru(μ-Cl)Cl]2) (in the range 0.25 and 4.0 metal complex:DNAbp) at 37° C. for 20 h in the dark. Samples of free DNA and cisplatin-DNA were prepared as controls. After the incubation period, the samples were loaded onto the 1% agarose gel. The samples were separated by electrophoresis for 1.5 h at 80 V in Tris-acetate/EDTA buffer (TAE). Afterwards, the gel was stained for 30 min. with a solution of GelRed Nucleic Acid stain.

In a further data set the test system is leukemia Jurkat-T. As to the kind of experiment: MTT toxicity assay, Jurkat. The data set is classed as cell-based, human. As to conditions: 24 h incubation, mean ± SD (n = 4). As to the method: as §3
A further data set deals with pancreas MiaPaca2. Description: MTT toxicity assay, MiaPaca2. Type of data set: cell-based, human. As to conditions: 24 h incubation, mean ± SD (n = 4). As to the method: as §3
Another data set relates to lung A549. As to the kind of experiment: MTT toxicity assay, A549. Type of data set: cell-based, human. As to conditions: 24 h incubation, mean ± SD (n = 4). As to the method: as §3
A further data set deals with Jurkat cells. Description: Cell death analysis (PS exposure, mitochondrial membrane potential, Hoechst) in Jurkat cells.
For data set [4], the target named is Human serum albumin (HSA) (Homo sapiens, UniProt P02768). As to the kind of experiment: Interaction with HSA by fluorescence spectroscopy (Stern-Volmer). Type of data set: binding. As to conditions: HSA 10 μM, phosphate buffer pH 7.4.
Chain of Human serum albumin (HSA) (P02768 25-609): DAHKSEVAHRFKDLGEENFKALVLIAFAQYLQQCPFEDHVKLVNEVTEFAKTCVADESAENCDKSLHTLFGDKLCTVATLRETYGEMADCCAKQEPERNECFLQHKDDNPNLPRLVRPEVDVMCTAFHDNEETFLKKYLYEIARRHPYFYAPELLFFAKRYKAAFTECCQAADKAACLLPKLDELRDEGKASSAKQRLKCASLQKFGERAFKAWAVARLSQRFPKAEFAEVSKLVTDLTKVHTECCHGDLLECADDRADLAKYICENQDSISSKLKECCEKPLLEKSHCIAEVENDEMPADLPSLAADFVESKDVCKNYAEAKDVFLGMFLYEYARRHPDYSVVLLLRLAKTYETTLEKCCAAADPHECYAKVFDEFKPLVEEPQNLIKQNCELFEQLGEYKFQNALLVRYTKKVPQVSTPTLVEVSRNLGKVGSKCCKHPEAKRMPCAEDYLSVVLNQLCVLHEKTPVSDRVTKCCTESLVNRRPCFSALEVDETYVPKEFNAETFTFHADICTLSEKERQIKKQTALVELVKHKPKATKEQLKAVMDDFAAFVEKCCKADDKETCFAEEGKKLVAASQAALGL
Procedure: The fluorescence data was analyzed by the Stern-Volmer equation.
A solution of each compound (8 mM) in DMSO was prepared and ten aliquots of 2.5 μL were added successively to a solution of HSA (10 μM) in phosphate buffer (pH=7.4) to achieve final metal complex concentrations in the range 10-100 μM. The excitation wavelength was set to 295 nm, and the emission spectra of HSA samples were recorded at room temperature in the range of 300 to 450 nm. The fluorescence intensities of all the metal compounds, the buffer and the DMSO are negligible under these conditions. The fluorescence was measured 240 s. after each addition of compound solution. The data were analyzed using the classical Stern-Volmer equation F0/F=1+KSV[Q].
The next data set is described as follows: Solubility. Conditions: 1:99 DMSO:H2O.
The subject of data set [5] is human renal proximal tubular cells (RPTC). Description: XTT assay for RPTC cells. As to conditions: XTT assay 24 hours. Type of data set: cell-based. As to the method: Renal proximal tubular cells in primary culture have been described as an in vitro model to study nephrotoxicity.
The human Renal Proximal Tubule Cells (RPTC) a non-tumoral human kidney epithelial cell line (obtained from Lifeline Cell Technology, Frederick, Md., USA) were cultured in Lifeline's RenaLife Medium containing RenaLife LifeFactors with 2.4 mM L-Glutamine, 5 Î¼ g/mL rh insulin, 1.0 Î¼M epinephrine, 10 nM triiodothyronine, 0.1 Î¼ g/mL hydrocortisone hemisuccinate, 10 ng/mL rh EGF, 0.5% FBS and 5 Î¼ g/m transferrin PS (all from Lifeline Cell Technology), at 37° C. in a humidified atmosphere of 95% of air and 5% CO2 (University of Hawaii Cancer Center, Honolulu, Hi., USA). For evaluation of cell viability, cells were seeded at a concentration of 5×10^3 cells/well in 90 μl Lifeline's RenaLife complete medium into tissue culture grade 96-well flat bottom microplates (Thermo Scientific BioLite Microwell Plate, Fisher Scientific, Waltham, Mass., USA) and grown for 24 h. […] The optical density of each well (96-well plates) was quantified using EnVision Multilabel Plate Readers (Perkin Elmer, Waltham Mass., USA) at 450 nm wavelength to measure absorbance. The percentage of surviving cells was calculated from the ratio of absorbance of treated to untreated cells. […]

The next data set concerns human cell lines. As to the kind of experiment: MTT toxicity assay, all tested human cell lines. Type of data set: cell-based. As to conditions: 24 h incubation. As to the method: as §3
The mark [6] stands for this setting: Jurkat cells, general caspase inhibitor z-VAD-fmk.

Procedure for Jurkat cells: The mechanism of cell death induced by compound 2 and compound 3 was explored in Jurkat cells. Nuclei morphology after twenty-four hour incubation with 1 μM solution of compound 2 or compound 3 was analyzed by Hoechst staining. […] Other apoptotic parameters such as phosphatidylserine exposure and mitochondrial membrane potential dissipation were analyzed using fluorescent probes.
To determine whether caspase inhibition prevented or just delayed cell death, experiments were performed in which cells were treated with compound 2 or compound 3 for twenty-four hours in the presence of z-VAD-fmk and then washed and further cultured in fresh medium for twenty-four hours (FIG. 6). PS exposure was analyzed after the first twenty-four hours in the presence of compound+z-VAD-fmk and twenty-four hours after washing.
Apoptosis/necrosis hallmarks of cells treated with compounds 2 and 3 were analyzed by measuring mitochondrial membrane potential and/or exposure of phosphatidylserine. In some experiments the general caspase inhibitor z-VAD-fmk was added at 50 μM 1 h before compounds. For mitochondrial membrane potential determination cells (2.5×10^5 in 200 μl) after treatment with compounds were incubated at 37° C. for 15 min. in ABB (140 mM NaCl, 2.5 mM CaCl2, 10 mM Hepes/NaOH, pH 7.4) containing 60 mM tetramethylrhodamine ethyl ester (TMRE, Molecular Probes). Phosphatidylserine exposure was quantified by labeling cells with AnnexinV-PE or AnnexinV-DY636 (Invitrogen) after treatment with compounds. AnnexinV was added at a concentration of 0.5 μg/mL and cells were incubated at room temperature for 15 min. In all cases, cells were diluted to 1 ml with ABB to be analyzed by flow cytometry (FACScan, BD Bioscience, Spain).

Turning to “[(η^6-p-cymene)Ru{(Ph3P═N-8-C9H6N)-κ-N,N}Cl]Cl [Compound 3]”, the IC50 is 2.2 ± 1.1 µM in data set [1]; 6.6 ± 0.85 µM with prostate DU-145; 16.2 ± 0.9 µM in data set [3]; 0.9 ± 0.32 µM in the data set on leukemia Jurkat-T; 7 ± 0.4 µM in the data set on pancreas MiaPaca2; 43.3 ± 8 µM in the data set with lung A549. Besides, the “ruthenium content in DNA precipitate” value with CT DNA was 2.43±0.18. For the same compound, the “stability in D2O (NMR spectra)” value in data set [2] is recorded as “does not change significantly over time”. Moreover, the “stability in d^6-DMSO solution” value in data set [2] is reported as “stable for weeks”. Besides, the “electrophoretic mobility of plasmid pBR322 DNA” value (from here on “electrophoretic mobility”) in the data set with plasmid pBR322 DNA is recorded as “no mobility retardation is observed”. Further, the “AnnexinV+ cells, compound + z-VAD-fmk” value in the data set on Jurkat cells (24 h with compound + z-VAD-fmk, then 24 h in fresh medium after washing) is on record as 32%. Further, the “PS exposure with z-VAD-fmk” value with Jurkat cells (setting [6]) is listed as “completely abrogated”. In the data set on Jurkat cells (setting [6]), the “Δψm loss with z-VAD-fmk” value came to 20%. This compound also gave a Δψm loss in the data set on Jurkat cells (Jurkat cells, without z-VAD-fmk) of 40%. Also, in the data set with Jurkat cells (Jurkat, 24 h incubation with 1 μM solution), the “Nuclei morphology (Hoechst staining)” value is “chromatin condensation and fragmentation”. Also, the “AnnexinV+ cells, compound alone for twenty-four hours” value in the data set with Jurkat cells (compound alone, 24 h) worked out at 28%.

Turning to “[(η^6-p-cymene)Ru((Ph3P═N—CO-2-C6H4)-κ-C,N)Cl] [Compound 8]”, the IC50 in data set [1] was determined as 4.1 ± 0.06 µM; with prostate DU-145, 14.2 ± 4.2 µM; in [3], 7.1 ± 0.11 µM; in the data set with leukemia Jurkat-T, 2.39 ± 0.27 µM; in the data set with pancreas MiaPaca2 it was 8.2 ± 0.98 µM; with lung A549 it was 29.9 ± 5.8 µM. In addition, the “stability in d^6-DMSO solution” value in data set [2] is recorded as “stable for weeks”. This compound also displayed a Stern-Volmer constant in data set [4] of 18100 M⁻¹. Further, in “Solubility”, the “solubility in DMSO:H2O mixtures” value is given as “soluble in mixtures 1:99 DMSO:H2O in micromolar concentrations”.

On to `Cc1ccc(C(C)C)cc1.O=C(N=P12CN3CN(CN(C3)C1)C2)c1cccc[c]1[Ru][Cl]` [Compound 9, [(η^6-p-cymene)Ru{(PTA═N—CO-2-C6H4)-κ-C,N}Cl]], for which the IC50 in data set [1] is 142 ± 13.1 µM; with prostate DU-145, 126 ± 28 µM; in data set [3], 75.4 ± 9.8 µM; with leukemia Jurkat-T, 17.7 ± 7.5 µM; in the data set with pancreas MiaPaca2, 54.5 ± 16 µM; in the data set with lung A549, > 125 µM. The “solubility in DMSO:H2O mixtures” value in the data set “Solubility” is reported as “soluble in mixtures 1:99 DMSO:H2O in micromolar concentrations”.

With “[(η^6-p-cymene)Ru([{Cp—P(Ph2)═N—CH2-2-NC5H4}Fe(Cp)]-κ-N,N)Cl]Cl [Compound 4]”, the IC50 in data set [1] is 114 ± 14.8 µM; in the data set on prostate DU-145, 148 ± 33 µM; in [3], > 125 µM; in the data set with leukemia Jurkat-T, 9.3 ± 0.07 µM; in the data set with pancreas MiaPaca2, > 125 µM; in the data set with lung A549 it was > 125 µM. In [2], the “stability in D2O (NMR spectra)” value is reported as “does not change for over three days”. In addition, in data set [2], the “stability in d^6-DMSO solution” value is “stable for weeks”. Further, the “electrophoretic mobility” value in the data set with plasmid pBR322 DNA is reported as “no mobility retardation is observed”.

Regarding `N.N.[Cl][Pt][Cl]` [Cisplatin, reference compound], the IC50 in data set [1] was determined as 69 ± 6.7 µM; in the data set with prostate DU-145, 112 ± 33 µM; in data set [5], 46.4 ± 2.46 µM; in data set [3] it was 131 ± 18 µM; in the data set on leukemia Jurkat-T, 10.8 ± 1.2 µM; with pancreas MiaPaca2, 76.5 ± 7.4 µM. Half-maximal inhibition in the data set on lung A549 (IC50) was put at 114 ± 9.1 µM. For the same compound, in the data set with plasmid pBR322 DNA, the “electrophoretic mobility” value was “able to both increase and decrease the mobility of the OC and the CCC forms”.

As to [(η^6-p-cymene)Ru(μ-Cl)Cl]2, the IC50 in the data set on human cell lines is > 125 µM.

With “[(η^6-p-cymene)Ru{(Ph3P═N—CO-2-N—C5H4)-κ-N,O}Cl](PF6) [Compound 1]”, the half-inhibitory concentration (IC50) in data set [1] is 2.8 ± 0.2 µM; in the data set on prostate DU-145, 1.89 ± 0.64 µM; in [3] it was 4.91 ± 2.7 µM; in the data set on leukemia Jurkat-T, 1.1 ± 0.14 µM; with pancreas MiaPaca2, 2.4 ± 0.18 µM; with lung A549, 9.9 ± 1.9 µM. In data set [2], the “stability in d^6-DMSO solution” value is given as “stable for weeks”. The “electrophoretic mobility” value with plasmid pBR322 DNA is “induce retardation of the mobility of the CCC form”.

As usually defined, the IC50 is the midpoint of a concentration-inhibition curve.
